4 molecules from BindingDB's records for doi:10.1016/s0960-894x(01)00126-3 (Technische Universität Graz, 2001) can be followed below.

The test is described as follows: Tested for inhibitory activity against Beta-glucosidase from Agrobacterium species.

Broadly, the Ki is the equilibrium dissociation constant of an inhibitor or competing ligand from its target. A higher Ki goes with lower affinity. Regarding `CCCCCCCCCCCC(=O)NC[C@H]1N[C@H](CO)[C@H](O)[C@@H]1O` [Dodecanoic acid ((3S,4S,5R)-3,4-dihydroxy-5-hydroxymethyl-pyrrolidin-2-ylmethyl)-amide], the inhibitory constant (Ki) stood at 100 nM.

Regarding `CCN(CC)c1ccc2cc(C(=O)NC[C@H]3N[C@H](CO)[C@H](O)[C@@H]3O)c(=O)oc2c1` [7-Diethylamino-2-oxo-2H-chromene-3-carboxylic acid ((R)-(3R,5S)-3,4-dihydroxy-5-hydroxymethyl-pyrrolidin-2-ylmethyl)-amide], the Ki worked out at 1.2 nM. Regarding `O=C(CCc1ccccc1)NC[C@@H]1N[C@H](CO)[C@H](O)[C@@H]1O` [N-((3S,4S,5R)-3,4-Dihydroxy-5-hydroxymethyl-pyrrolidin-2-ylmethyl)-3-phenyl-propionamide], the Ki was 150 nM. With `O=C(NC[C@H]1N[C@H](CO)[C@H](O)[C@@H]1O)c1cccc2ccccc12` [Naphthalene-1-carboxylic acid ((3S,4S,5R)-3,4-dihydroxy-5-hydroxymethyl-pyrrolidin-2-ylmethyl)-amide] the figure was 550 nM.
